Reference: patent EP1166782A2, “Anti-retroviral pharmaceutical compositions” (Yang, Chi-Chiang, priority 2000, dated 2002)
Like-named read-outs stand apart in the source and are kept apart here.

How the values were obtained:
T cells-tropic (JRCSF) = assay: P24 quantification (P24 EIA) in infected PBMCs, JRCSF; type: cell-based, HIV-1; conditions: PBMC; for concentrations of the viral P24 antigen, JRCSF(+): (+) original concentration of compound maintained after washing; for concentrations of the viral P24 antigen, JRCSF(-): (-) compound removed after washing
Experimental: (§1) PBMCs were treated with various concentrations of CAPE, MC and PEDMC provided in Example 2 and simultaneously infected with […] and macrophage and T cells dual tropic (89.6) HIV-1 isolates. The next day, the added compounds were removed by washing methods or maintained at the same concentration. Samples were divided into two groups and the upernatants of the culture medium were collected at the 3 and 7 days after infection, respectively. The use of P24 EIA Reagent Kit of Abbott Laboratory compares the concentrations of viral P24 antigen with or without the compounds tested.

[1] = system: various HIV isolates (NL-43, JRCSF or 89.6); assay: P24 quantification, summary statements over all isolates; type: cell-based, HIV-1
Experimental: as §1

cells = assay: Cellular activities in microculture tetrazolium (MTT) tests; type: cell-based
Experimental: The cellular activities were tested according to method as described in Alley M.C. et al, Cancer Res. 1988; 48(3):589-601. The principle of the method resides in that live cells can reduce MTT., i.e., 3-[4,5-dimethylthiazol-2-yl]-2,5-diphenyltetrazolium bromide)(tetrazolium salt) to formazan crystal through the dehydrogenase metabolism in Mitochondria. The crystal was dissolved in propanol and OD values were determined at 570 nm. The OD values can indicate the numbers of the live cells. The growth conditions of the cells were observed firstly. The cells were diluted to 2x10^4 cells/ml. 100µl sample taken by micropipet was placed in a 96-well plate. The plate was cultured for 24 hours as 37°C and 100µl of the compounds to be tested, which were prepared in medium, were added in each well. […] After culture for 4 hours, supernatant liquid was absorbed and 100 µl DMSO and 10µl /well was added. Each well was homogeneously mixed. The absorbance was determined at 570 nm.

[2] = system: macrophage and T cells dual tropic (89.6); assay: P24 quantification (P24 EIA) in infected PBMCs, 89.6; type: cell-based, HIV-1; conditions: PBMC; for concentrations of the viral P24 antigen, 89.6(+): (+) original concentration of compound maintained after washing; for concentrations of the viral P24 antigen, 89.6(-): (-) compound removed after washing
Experimental: as §1

[3] = system: macrophage-tropic (NL-43); assay: P24 quantification (P24 EIA) in infected PBMCs, NL-43; type: cell-based, HIV-1; conditions: PBMC; for concentrations of the viral P24 antigen, NL43(+): (+) original concentration of compound maintained after washing; for concentrations of the viral P24 antigen, NL43(-): (-) compound removed after washing
Experimental: as §1

[4] = system: Peripheral Blood Mononuclear Cells (PBMC); conditions: for The numbers of dead cells in 400 cells' count / % viability: 48 hours; for The numbers of dead cells in 400 cells' count: control 9 dead cells; for % viability: viable cells versus control (391);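 on all read-outs here: trypan blue dye exclusion, cells stained and counted from quadruplicate dishes, DMSO vehicle kept under 0.5%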
Experimental: Viability of the cells was assayed by the trypan blue dye exclusion method. […] The concentration of DMSO was adjusted to be less than 0.5%. Cells from quadruplicated dishes were washed once with Hank's Balanced Salt Solution (HBSS). According to the process, the floating dead cells will be separated from the live monolayer cells. Then the cells were stained with trypan blue and counted. The total number of viable cells in the control group was considered as 100% viability and the agent-treated cells were compared with the control group for the determination of % viability. The % viability of agent-treated cells was calculated from the total number of viable cells in the control group and in the agent-treated group.

O=C(/C=C/c1ccc(O)c(O)c1)OCCc1ccccc1 [CAPE, caffeic acid phenethyl ester]
concentrations of the viral P24 antigen, JRCSF(+) (T cells-tropic (JRCSF); 0.1 µM): 1000 unit
concentrations of the viral P24 antigen, JRCSF(-) (T cells-tropic (JRCSF); 0.1 µM): 1000 unit
concentrations of the viral P24 antigen, JRCSF(+) (T cells-tropic (JRCSF); 0.5 µM): 1000 unit
concentrations of the viral P24 antigen, JRCSF(-) (T cells-tropic (JRCSF); 0.5 µM): 1000 unit
concentrations of the viral P24 antigen, JRCSF(+) (T cells-tropic (JRCSF); 1 µM): 1000 unit
concentrations of the viral P24 antigen, JRCSF(-) (T cells-tropic (JRCSF); 1 µM): 1000 unit
concentrations of the viral P24 antigen, JRCSF(+) (T cells-tropic (JRCSF); 5 µM): 965.62 unit
concentrations of the viral P24 antigen, JRCSF(-) (T cells-tropic (JRCSF); 5 µM): 1000 unit
concentrations of the viral P24 antigen, JRCSF(+) (T cells-tropic (JRCSF); 10 µM): 642.72 unit
concentrations of the viral P24 antigen, JRCSF(-) (T cells-tropic (JRCSF); 10 µM): 34.42 unit
concentrations of the viral P24 antigen, JRCSF(+) (T cells-tropic (JRCSF); 25 µM): 0 unit
concentrations of the viral P24 antigen, JRCSF(-) (T cells-tropic (JRCSF); 25 µM): 0 unit
concentrations of the viral P24 antigen, JRCSF(+) (T cells-tropic (JRCSF); 50 µM): 0 unit
concentrations of the viral P24 antigen, JRCSF(-) (T cells-tropic (JRCSF); 50 µM): 0 unit
concentrations of the viral P24 antigen, JRCSF(+) (T cells-tropic (JRCSF); 100 µM): 0 unit
concentrations of the viral P24 antigen, JRCSF(-) (T cells-tropic (JRCSF); 100 µM): 0 unit
concentrations of the viral P24 antigen, JRCSF(+) (T cells-tropic (JRCSF); 200 µM): 0 unit
concentrations of the viral P24 antigen, JRCSF(-) (T cells-tropic (JRCSF); 200 µM): 0 unit
concentrations of the viral P24 antigen, JRCSF(+) (T cells-tropic (JRCSF); 400 µM): 0 unit
concentrations of the viral P24 antigen, JRCSF(-) (T cells-tropic (JRCSF); 400 µM): 0 unit
viral replications (result in words) ([1]; Figures 3-5, PBMC infected with NL-43, JRCSF or 89.6): significantly inhibited viral replications
inhibit viral replication ([1]; at the concentration of 100 µM or less, various HIV isolates): 100%
MTT 24h, cellular activities (cells; 0.1 µM): 97.49 relative percentage
MTT 48h, cellular activities (cells; 0.1 µM): 87.49 relative percentage
MTT 24h, cellular activities (cells; 0.5 µM): 104.67 relative percentage
MTT 48h, cellular activities (cells; 0.5 µM): 97.54 relative percentage
MTT 24h, cellular activities (cells; 1 µM): 109.25 relative percentage
MTT 48h, cellular activities (cells; 1 µM): 104.18 relative percentage
MTT 24h, cellular activities (cells; 5 µM): 102.41 relative percentage
MTT 48h, cellular activities (cells; 5 µM): 99.74 relative percentage
MTT 24h, cellular activities (cells; 10 µM): 93.07 relative percentage
MTT 48h, cellular activities (cells; 10 µM): 94.76 relative percentage
MTT 24h, cellular activities (cells; 25 µM): 98.65 relative percentage
MTT 48h, cellular activities (cells; 25 µM): 96.92 relative percentage
MTT 24h, cellular activities (cells; 50 µM): 95.49 relative percentage
MTT 48h, cellular activities (cells; 50 µM): 96.42 relative percentage
MTT 24h, cellular activities (cells; 100 µM): 96.15 relative percentage
MTT 48h, cellular activities (cells; 100 µM): 94.02 relative percentage
MTT 24h, cellular activities (cells; 200 µM): 106.8 relative percentage
MTT 48h, cellular activities (cells; 200 µM): 98.6 relative percentage
MTT 24h, cellular activities (cells; 400 µM): 108.62 relative percentage
MTT 48h, cellular activities (cells; 400 µM): 98.9 relative percentage
cellular activities in MTT tests (result in words) (cells; Figures 1 and 2, 24 and 48 hours): no substantial effects
concentrations of the viral P24 antigen, 89.6(+) ([2]; 0.1 µM): 1000 unit
concentrations of the viral P24 antigen, 89.6(-) ([2]; 0.1 µM): 1000 unit
concentrations of the viral P24 antigen, 89.6(+) ([2]; 0.5 µM): 899.22 unit
concentrations of the viral P24 antigen, 89.6(-) ([2]; 0.5 µM): 949.75 unit
concentrations of the viral P24 antigen, 89.6(+) ([2]; 1 µM): 643.71 unit
concentrations of the viral P24 antigen, 89.6(-) ([2]; 1 µM): 1000 unit
concentrations of the viral P24 antigen, 89.6(+) ([2]; 5 µM): 243.87 unit
concentrations of the viral P24 antigen, 89.6(-) ([2]; 5 µM): 280.51 unit
concentrations of the viral P24 antigen, 89.6(+) ([2]; 10 µM): 230.32 unit
concentrations of the viral P24 antigen, 89.6(-) ([2]; 10 µM): 255.21 unit
concentrations of the viral P24 antigen, 89.6(+) ([2]; 25 µM): 0 unit
concentrations of the viral P24 antigen, 89.6(-) ([2]; 25 µM): 182.44 unit
concentrations of the viral P24 antigen, 89.6(+) ([2]; 50 µM): 0 unit
concentrations of the viral P24 antigen, 89.6(-) ([2]; 50 µM): 243.53 unit
concentrations of the viral P24 antigen, 89.6(+) ([2]; 100 µM): 0 unit
concentrations of the viral P24 antigen, 89.6(-) ([2]; 100 µM): 113.2 unit
concentrations of the viral P24 antigen, 89.6(+) ([2]; 200 µM): 0 unit
concentrations of the viral P24 antigen, 89.6(-) ([2]; 200 µM): 0 unit
concentrations of the viral P24 antigen, 89.6(+) ([2]; 400 µM): 0 unit
concentrations of the viral P24 antigen, 89.6(-) ([2]; 400 µM): 0 unit
concentrations of the viral P24 antigen, NL43(+) ([3]; 0.1 µM): 1000 unit
concentrations of the viral P24 antigen, NL43(-) ([3]; 0.1 µM): 1000 unit
concentrations of the viral P24 antigen, NL43(+) ([3]; 0.5 µM): 1000 unit
concentrations of the viral P24 antigen, NL43(-) ([3]; 0.5 µM): 1000 unit
concentrations of the viral P24 antigen, NL43(+) ([3]; 1 µM): 1000 unit
concentrations of the viral P24 antigen, NL43(-) ([3]; 1 µM): 1000 unit
concentrations of the viral P24 antigen, NL43(+) ([3]; 5 µM): 1000 unit
concentrations of the viral P24 antigen, NL43(-) ([3]; 5 µM): 1000 unit
concentrations of the viral P24 antigen, NL43(+) ([3]; 10 µM): 990.64 unit
concentrations of the viral P24 antigen, NL43(-) ([3]; 10 µM): 1000 unit
concentrations of the viral P24 antigen, NL43(+) ([3]; 25 µM): 975.64 unit
concentrations of the viral P24 antigen, NL43(-) ([3]; 25 µM): 988.28 unit
concentrations of the viral P24 antigen, NL43(+) ([3]; 50 µM): 166.12 unit
concentrations of the viral P24 antigen, NL43(-) ([3]; 50 µM): 865.44 unit
concentrations of the viral P24 antigen, NL43(+) ([3]; 100 µM): 0 unit
concentrations of the viral P24 antigen, NL43(-) ([3]; 100 µM): 62.26 unit
concentrations of the viral P24 antigen, NL43(+) ([3]; 200 µM): 0 unit
concentrations of the viral P24 antigen, NL43(-) ([3]; 200 µM): 0 unit
concentrations of the viral P24 antigen, NL43(+) ([3]; 400 µM): 0 unit
concentrations of the viral P24 antigen, NL43(-) ([3]; 400 µM): 0 unit
The numbers of dead cells in 400 cells' count ([4]; 0.1 µM): 11
% viability ([4]; 0.1 µM): 389/391 (99.5%)
The numbers of dead cells in 400 cells' count ([4]; 0.5 µM): 9
% viability ([4]; 0.5 µM): 391/391 (100%)
The numbers of dead cells in 400 cells' count ([4]; 1 µM): 7
% viability ([4]; 1 µM): 393/391 (100.5%)
The numbers of dead cells in 400 cells' count ([4]; 5 µM): 10
% viability ([4]; 5 µM): 390/391 (99.7%)
The numbers of dead cells in 400 cells' count ([4]; 10 µM): 10
% viability ([4]; 10 µM): 390/391 (99.7%)
The numbers of dead cells in 400 cells' count ([4]; 25 µM): 5
% viability ([4]; 25 µM): 395/391 (101%)
The numbers of dead cells in 400 cells' count ([4]; 50 µM): 12
% viability ([4]; 50 µM): 388/391 (99.2%)
The numbers of dead cells in 400 cells' count ([4]; 100 µM): 11
% viability ([4]; 100 µM): 389/391 (99.5%)
The numbers of dead cells in 400 cells' count ([4]; 200 µM): 7
% viability ([4]; 200 µM): 393/391 (100.5%)
The numbers of dead cells in 400 cells' count ([4]; 400 µM): 8
% viability ([4]; 400 µM): 392/391 (100.3%)
viabilities of PBMC under high-dose versus low-dose treatments (result in words) ([4]; high dose up to 400 µM compared with 0.1-10 µM): no substantial differences
